The text below walks through data of patent publication US20150297738A1, “CONJUGATES COMPRISING HYDROXYALKYL STARCH AND A CYTOTOXIC AGENT AND PROCESS FOR THEIR PREPARATION” (Fresenius Kabi Deutschland GmbH, priority 2010, published 2015).

Holding throughout (format): in vivo, NMRI:nu/nu mice
Data set [1] deals with human breast carcinoma MT-3. The data set can be described thus: Tumor growth inhibition (RTV, T/C) in the MT-3 xenograft mouse tumor model. Conditions: for Tumor volume cm^3/d31: day 31; for Tumor volume cm^3/d27: day 27.
Data set [2] in a line: Body weight change as sign of toxicity in tumor-bearing mice (docetaxel/paclitaxel studies; MT-3, PC3, A549 models). Here is the method:
(§1) Tumor growth inhibition was used as therapeutic parameter. Additionally, body weight change was determined as signs for toxicity (particularly, potential hematological or gastrointestinal side effects).
Individual body weights of mice were determined twice weekly and mean body weight per group was related to the initial value in percent (body weight change, BWC), see tables in appendix.
Descriptive statistics was performed on the data of body weight and tumor volume. […] Statistical evaluation was performed with the U-test of Mann and Whitney with a significance level of p≦0.05, using the Windows program […] 6.
Tables 18 to 24 summarize the results for the tested Docetaxel conjugates and the reference compound Taxotere®. […] The loss of body weight is known to be an indicator of gastro-intestinal and hepatotoxicity of the tested compound.
The tables show, inter alia, i) the tested compounds, ii) the tumor volume in mice at the day the control group was sacrificed (in cm^3), iii) the lowest value of the relative tumor volume vs. the relative tumor volume of the control group (RTV T/C) together with the day, when this optimum was reached, iv) the maximum body weight loss in mice together with the day, when this minimum was reached. The loss of body weight is known to be an indicator of gastro-intestinal and hepatotoxicity of the tested compound.

The test system of data set [3] is human pancreas carcinoma ASPC-1. The data set is described as follows: Tumor growth inhibition (RTV, T/C) in the ASPC-1 s.c. xenotransplantation model. Conditions: Table 27, ASPC-1; day 27; 60 mg/kg/inj., treatment d 7, 15, 21.
Excerpt: At treatment initiation the ears of the animals were marked and each cage was labeled with the cage number, study number and animal number per cage.
The human pancreas carcinoma ASPC-1 was used as s.c. xenotransplantation model in immunodeficient female NMRI:nu/nu mice.
They were thawed, expanded in vitro and transplanted as cell suspension subcutaneously (s.c.) in female NMRI:nu/nu mice. The tumor line ASPC-1 is used for testing new anticancer drugs or novel therapeutic strategies. It was therefore selected for this study.
For experimental use 10^7 tumor cells/mouse from the in vitro passage were transplanted s.c. into the flank of each of 10 mice/group at day 0.
At palpable tumor size (30-100 mm^3) treatment started. The application volume was 0.2 ml/20 g mouse body weight. The test compounds, the vehicle controls and the reference compounds were all given intravenously (i.v.).
as §1
Tumor diameters were measured twice weekly with a caliper. Tumor volumes were calculated according to V=(length×(width)^2)/2. For calculation of the relative tumor volume (RTV) the tumor volumes at each measurement day were related to the day of first treatment. […]

Data set [4] is described as follows: Body weight change as sign of toxicity in mice bearing ASPC-1 xenografts (gemcitabine study). The following applies: Table 27, ASPC-1; 60 mg/kg/inj., treatment d 7, 15, 21; day in parentheses. The procedure:
as §1
Individual body weights of mice were determined twice weekly and mean body weight per group was related to the initial value in percent (body weight change, BWC).
Descriptive statistics were performed on the data of body weight and tumor volume. […] Statistical evaluation was performed with the U-test of Mann and Whitney with a significance level of p≦0.05, using the Windows program […] 6.

Data set [5] has as its system human prostate carcinoma PC3. The data set is described as follows: Tumor growth inhibition (RTV, T/C) in the PC3 xenograft mouse tumor model. Conditions: Table 20; conjugates 1 × 75 mg/kg d6, Docetaxel 5 mg/kg d6-10; i.v. The procedure: Each measurement was carried out with a group of 8 mice. The conjugates CDc1, CDc4 and CDc5 were administered once at a dosage of 75 mg/kg body weight on day 6. Taxotere® was administered 5 times at a dosage of 5 mg/kg body weight at days 6 to 10. Median values are given.
(§2) Adult male and female immunodeficient mice NMRI:nu/nu mice (TACONIC Europe, Lille Skensved, Denmark) were used throughout the study.
(§3) The animals were randomly assigned to various experimental groups with 6 to 8 mice each. At treatment initiation the ears of the animals were marked and each cage was labeled with the cage number, study number and animal number per cage.
(§4) The tumor lines A549, PC-3 and MT3 are lines which are commonly used for testing new anticancer drugs or novel therapeutic therapies. A549, PC-3 and MT3 xenografts are growing relatively fast and uniform.
(§5) Tumor cells were thawed and grown under in vitro conditions. […]
as §1
(§6) Tumor diameters were measured twice weekly with a caliper. Tumor volumes were calculated according to V=(length×(width)^2)/2. […] At each measurement day the median and mean tumor volumes per group and also the treated to control (T/C) values in percent were calculated. […]

Data set [6] relates to human lung carcinoma A549. The data set can be described thus: Tumor growth inhibition (RTV, T/C) in the A549 xenograft mouse tumor model. The following applies: Table 21, conjugates 1 × 75 mg/kg d8, Docetaxel 5 mg/kg d8-12, i.v. Here is the method: Each measurement was carried out with a group of 8 mice. The conjugates CDc1, CDc4 and CDc5 were administered once at a dosage of 75 mg/kg body weight on day 8. Taxotere® was administered 5 times at a dosage of 5 mg/kg body weight at days 8 to 12. Median values are given.
as §2, §3, §4, §5, §1, §6

Where [7] appears, read: Table 25, MT-3, 12.5 mg/kg/inj. d 7-9, 10 mg/kg/inj. d 10-11.
Where [8] appears, read: Table 23, conjugates 1 × 75 mg/kg d7, Docetaxel 5 mg/kg d7-11, i.v.

Marks after values point to notes of the source that are not given here.

With `CC(=O)O[C@H]1C(=O)[C@@]2(C)[C@H]([C@H](OC(=O)c3ccccc3)[C@]3(O)C[C@H](OC(=O)[C@H](O)[C@@H](NC(=O)c4ccccc4)c4ccccc4)C(C)=C1C3(C)C)[C@]1(OC(C)=O)CO[C@@H]1C[C@@H]2O` [Paclitaxel, paclitaxel], the “RTV T/C (%) Optimum (at day)” value in data set [1] (setting [7]) is 21.5%. Moreover, the “Tumor volume cm^3/d31” value in data set [1] (setting [7]) is listed as 0.41 +/− 0.21* cm^3; in data set [1] (Table 26, MT-3, 10 mg/kg/inj., treatment d 10-14), 0.673 +/− 0.226* cm^3. The “BWC [%] (at day)” value in data set [2] (Table 25, MT-3 model, 12.5 mg/kg/inj. d 7-9, 10 mg/kg/inj. d 10-11) is on record as −15%; in data set [2] (Table 26, MT-3 model, 10 mg/kg/inj., treatment d 10-14), −18%. Also, the “Toxic deaths (at day)” value in data set [2] (Table 25, MT-3 model, 12.5 mg/kg/inj. d 7-9, 10 mg/kg/inj. d 10-11, number of mice) is recorded as 1; in data set [2] (Table 26, MT-3 model, 10 mg/kg/inj., treatment d 10-14, number of mice) it was 0.
Turning to `Nc1ccn([C@@H]2O[C@H](CO)[C@@H](O)C2(F)F)c(=O)n1` [Gemcitabine, gemcitabine], in data set [3], the “d27 [head truncated; T/C in percent]” value was found to be 53.3%. In data set [4], the “[%] (at day) [head truncated; BWC]” value is −2.4 (9) %.
As to `CC(=O)O[C@@]12CO[C@@H]1C[C@H](O)[C@@]1(C)C(=O)[C@H](O)C3=C(C)[C@@H](OC(=O)[C@H](O)[C@@H](NC(=O)OC(C)(C)C)c4ccccc4)C[C@@](O)([C@@H](OC(=O)c4ccccc4)[C@H]21)C3(C)C` [Docetaxel, docetaxel], the “RTV T/C (%) Optimum (at day)” value amounted to 2.6% in data set [5]; 32.3% in data set [6]; 10.7% in data set [1] (Table 18, lowest RTV vs control, conjugates 1 × 100 mg/kg d7, Docetaxel 10 mg/kg d7, 9, 11, i.v.); 54.0% in data set [1] (Table 19, conjugates 1 × 75 mg/kg d11, Docetaxel 5 mg/kg d11-15, i.v.); 31.8% in data set [1] (Table 22, conjugates 1 × 75 mg/kg d11, Docetaxel 5 mg/kg d11-15, i.v.); 43.0% in data set [1] (setting [8]). The “RTV T/C (%) Optimum (at day)” value in data set [1] (Table 24, MT-3, 5 mg/kg/inj., treatment d 8-12, day of optimum in parentheses below) is on record as 23.1%. Further, the “Tumor volume cm^3/d42” value in data set [6] (day 42) is 0.334 +/− 0.207* cm^3. In data set [1] (Table 18, conjugates 1 × 100 mg/kg d7, Docetaxel 10 mg/kg d7, 9, 11, i.v.), the “Tumor volume cm^3/d31” value was 0.18 +/− 0.10 cm^3. In addition, the “Tumor volume cm^3/d26” value in data set [1] (Table 19, day 26, conjugates 1 × 75 mg/kg d11, Docetaxel 5 mg/kg d11-15, i.v.) is on record as 0.815 +/− 0.383* cm^3. In addition, in data set [1] (Table 22, day 25, conjugates 1 × 75 mg/kg d11, Docetaxel 5 mg/kg d11-15, i.v.), the “Tumor volume cm3/d25” value is recorded as 0.517 +/− 0.202* cm3. Further, the “Tumor volume cm^3/d27” value in data set [1] (setting [8]) is recorded as 0.873 +/− 0.390* cm^3; in data set [1] (Table 24, MT-3, 5 mg/kg/inj., treatment d 8-12), 0.542 +/− 0.353* cm^3. In data set [2] (Table 18, MT-3 model, conjugates 1 × 100 mg/kg d7, Docetaxel 10 mg/kg d7, 9, 11, i.v., 8 mice per group), the “Toxic deaths (at day)” value was determined as 4. Further, the “Toxic death (at day)” value in data set [2] (Table 23, MT-3 model, conjugates 1 × 75 mg/kg d7, Docetaxel 5 mg/kg d7-11, i.v.) came out at 0. In data set [2] (mouse, in vivo, 5 mg/kg), the “BWC [%] (at day)” value was −11%.
